In US6914045B2, “Glycopeptide antibiotics” (Wyeth Holdings Corporation, priority 2001, dated 2005):
≈ marks a conversion by molar mass, not a printed value.

How the values were obtained:
Assay in all cases: in vitro antibacterial evaluation, MIC by broth dilution
Format in all cases: cell-based
Conditions in all cases: broth dilution, 18 hours at 35° C.
Streptococcus sp. = tested on: Streptococcus sp.
Summary of the method: (§1)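 MIC, the lowest antibiotic concentration preventing growth, was read across 64-0.06 μg/mL with 5×10^5 CFU/mL inoculum. Method followed NCCLS M7-A2 broth dilution using Mueller-Hinton II; Gram-positive strains covered recent methicillin-, penicillin- and/or vancomycin-resistant clinical isolates.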

Enterococcus sp. = tested on: Enterococcus sp.
Summary of the method: as §1

Staphylococcus sp. = tested on: Staphylococcus sp.
Summary of the method: as §1

Escherichia coli = tested on: Escherichia coli
Summary of the method: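 MIC is the lowest antibiotic concentration (tested 64-0.06 μg/mL) preventing growth of a 5×10^5 CFU/mL inoculum. Determined by broth dilution in Mueller-Hinton II medium following NCCLS standard M7-A2.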

CC(C1CCCCC1)C1NC(=O)CNC(=O)C(CO)NC(=O)C(C(O)C2CNC(=N)N2C2OC(CO)C(O)C(O)C2O)NC(=O)C(C(O)C2CNC(=N)N2)NC(=O)C(CC2CCC(OC3OC(CO)C(OC4OC(CO)C(O)C(O)C4O)C(O)C3O)CC2)NC1=O (stereo not shown) [Example 53a, Cyclo[3-[4-[(4-O-hexopyranosylhexopyranosyl)oxy]cyclohexyl]alanyl-3-(2-iminoimidazolidin-4-yl)seryl-3-(3-hexopyranosyl-2-iminoimidazolidin-4-yl)serylserylglycyl-3-cyclohexyl-2-aminobutanoyl]]
MIC Streptococcus pneumoniae (ATCC 6301) (Streptococcus sp.; strain ATCC 6301): 64 µg/mL (≈ 49 µM) | MIC Streptococcus pneumoniae (GC 1894) (Streptococcus sp.; strain GC 1894): 32 µg/mL (≈ 24.5 µM) | MIC Streptococcus pyogenes (GC 4563) (Streptococcus sp.; strain GC 4563): 64 µg/mL (≈ 49 µM) | MIC Streptococcus agalactiae (GC 4564) (Streptococcus sp.; strain GC 4564): 64 µg/mL (≈ 49 µM) | MIC Streptococcus pneumoniae (GC 4565) (Streptococcus sp.; strain GC 4565): 64 µg/mL (≈ 49 µM) | MIC Enterococcus avium (GC 4558) (Enterococcus sp.; Enterococcus avium (GC 4558)): >128 µg/mL | MIC Enterococcus faecalis (ATCC 29212) (Enterococcus sp.; Enterococcus faecalis (ATCC 29212)): >128 µg/mL | MIC Enterococcus faecalis (GC 4552) (Enterococcus sp.; Enterococcus faecalis (GC 4552)): >128 µg/mL | MIC Enterococcus faecalis (GC 4553) (Enterococcus sp.; Enterococcus faecalis (GC 4553)): >128 µg/mL | MIC Enterococcus faecalis (GC 4554) (Enterococcus sp.; Enterococcus faecalis (GC 4554)): >128 µg/mL | MIC Enterococcus faecalis (GC 6189) (Enterococcus sp.; Enterococcus faecalis (GC 6189)): >128 µg/mL | MIC Enterococcus faecium (GC 2243) (Enterococcus sp.; Enterococcus faecium (GC 2243)): >128 µg/mL | MIC Enterococcus faecium (GC 4556) (Enterococcus sp.; Enterococcus faecium (GC 4556)): >128 µg/mL | MIC Enterococcus faecium (GC 4557) (Enterococcus sp.; Enterococcus faecium (GC 4557)): >128 µg/mL | MIC Enterococcus faecalis (ATCC 29212) (Enterococcus sp.; strain ATCC 29212): >128 µg/mL | MIC Enterococcus faecalis (GC 2242) (Enterococcus sp.; strain GC 2242): >128 µg/mL | MIC Enterococcus faecium (GC 2243) (Enterococcus sp.; strain GC 2243): >128 µg/mL | MIC Enterococcus faecalis (GC 2691) (Enterococcus sp.; strain GC 2691): >128 µg/mL | MIC Enterococcus faecalis (GC 3059) (Enterococcus sp.; strain GC 3059): >128 µg/mL | MIC Enterococcus faecalis (GC 4552) (Enterococcus sp.; strain GC 4552): >128 µg/mL | MIC Enterococcus faecalis (GC 4553) (Enterococcus sp.; strain GC 4553): >128 µg/mL | MIC Enterococcus faecalis (GC 4554) (Enterococcus sp.; strain GC 4554): >128 µg/mL | MIC Enterococcus faecium (GC 4556) (Enterococcus sp.; strain GC 4556): >128 µg/mL | MIC Enterococcus faecium (GC 4557) (Enterococcus sp.; strain GC 4557): >128 µg/mL | MIC Enterococcus avium (GC 4558) (Enterococcus sp.; strain GC 4558): >128 µg/mL | MIC Enterococcus faecalis (GC 6189) (Enterococcus sp.; strain GC 6189): >128 µg/mL | MIC Staphylococcus aureus (ATCC 29213) (Staphylococcus sp.; strain ATCC 29213): >128 µg/mL | MIC Staphylococcus aureus (GC 1131) (Staphylococcus sp.; strain GC 1131): >128 µg/mL | MIC Staphylococcus aureus (GC 3051) (Staphylococcus sp.; strain GC 3051): >128 µg/mL | MIC Staphylococcus aureus (GC 3053) (Staphylococcus sp.; strain GC 3053): >128 µg/mL | MIC Staphylococcus aureus (GC 4541) (Staphylococcus sp.; strain GC 4541): >128 µg/mL | MIC Staphylococcus aureus (GC 4542) (Staphylococcus sp.; strain GC 4542): >128 µg/mL | MIC Staphylococcus aureus-SMITH (GC 4543) (Staphylococcus sp.; strain GC 4543): >128 µg/mL | MIC Staphylococcus aureus (GC 4544) (Staphylococcus sp.; strain GC 4544): >128 µg/mL | MIC Staphylococcus aureus (GC 4545) (Staphylococcus sp.; strain GC 4545): >128 µg/mL | MIC Staphylococcus haemolyticus (GC 4546) (Staphylococcus sp.; strain GC 4546): >128 µg/mL | MIC Coagulase Negative Staphylococcus (GC 4547) (Staphylococcus sp.; strain GC 4547): >128 µg/mL | MIC Coagulase Negative Staphylococcus (GC 4548) (Staphylococcus sp.; strain GC 4548): >128 µg/mL | MIC Coagulase Negative Staphylococcus (GC 4549) (Staphylococcus sp.; strain GC 4549): >128 µg/mL | MIC Coagulase Negative Staphylococcus (GC 4551) (Staphylococcus sp.; strain GC 4551): >128 µg/mL | MIC Escherichia coli (ATCC 25922) (Escherichia coli; strain ATCC 25922): >128 µg/mL | MIC Escherichia coli (GC 4559) (Escherichia coli; strain GC 4559): >128 µg/mL | MIC Escherichia coli (GC 4560) (Escherichia coli; strain GC 4560): >128 µg/mL
